Data: patent US9498035B2, “Silicone hydrogel contact lenses for sustained release of beneficial polymers” (CooperVision International Holding Company, LP, priority 2012, dated 2016)

Legend:
[1] = Uptake of αPLL of varying molecular weight by Formulation C lenses; type: physicochemical; details: 1.8 ml 500 ppm αPLL in PBS, autoclave and overnight storage at room temperature, hydrobromide
Description: Solutions of 500 ppm poly-L-lysine hydrobromide (CAS No. 25988-63-0) (αPLL) with varying molecular weight ranges were prepared in PBS. Lenses of Formulation C prepared as described in Example 1 were packaged with 1.8 ml of each solution and autoclaved. After autoclave and overnight storage at room temperature uptake of αPLL was measured.

[2] = Release of αPLL of varying molecular weight from Formulation C lenses; type: physicochemical; details: for release between the 6 hour and 24 hour time points (in words): hydrobromide
Description: Lenses of Formulations B-E prepared according to Example 1 were used in this study. The lenses were immersed in 1.2 ml of 500 ppm εPLL in PBS for 48 hours as described in Example 3. Excess solution was removed from each lens by gently blotting with an absorbent tissue. Each lens was immersed in 1 ml of ISO 10344 standard saline solution (0.83% sodium chloride, 0.0467% sodium phosphate monobasic, and 0.4486% sodium phosphate dibasic) in a well of a 12-well plate and covered. The plates were shaken at 100 rpm at 37±2° C. At 2, 4, 6, 8, 12, and 24 hours, the solution was removed from each well and replaced with 1 ml of fresh ISO 10344 standard saline solution. HPLC was used to determine the amount of εPLL released from each lens.
Polymer release was tested substantially as described in Example 4, except that the time points tested were at 2, 6, and 24 hr.

Substance | uptake [1] [μg/lens] | duration of sustained release (in words) [2] | release between the 6 hour and 24 hour time points (in words) [2] | release of polymer detected (in words) ([2]; time points 2, 6, and 24 hr)
poly-L-lysine hydrobromide [Formulation 500-2K] | 122 | sustained for at least two hours | no significant release | –
poly-L-lysine hydrobromide [Formulation 4K-15K] | 400 | – | significant release | –
poly-L-lysine hydrobromide [Formulation 30K-70K] | 299 | – | – | –
poly-L-lysine hydrobromide [Formulation 70K-150K] | 185 | – | – | No significant release
poly-L-lysine hydrobromide [Formulation 15K-30K] | 414 | – | significant release | –
poly-L-lysine hydrobromide [Formulation 1K-5K] | 142 | sustained for at least two hours | no significant release | –
